The source of these data is PubChem BioAssay AID624344 (Sanford-Burnham Center for Chemical Genomics, 2012).

The source made the active and inactive calls. How the calls were made is not given here. Peptide text beside a SMILES is read from it. * marks the point of attachment. CH2Cl = ClC*

In one assay the test system is Cytotoxicity. Description: inhibitors of PAF-induced NFkB signaling in CF airway cells, dose response, cell-based, uHTS hits, panel, cytotoxicity readout (AID 624344). The following applies: CF bronchial epithelial cells, mean of runs.
Test in assay [1]: as above
The note with it: CF bronchial epithelial cells, PAF-induced NFkB reporter inhibition; with PAF, mean of runs.

In the case of `Cc1ccc(C(=O)Nc2cccc(C(F)(F)F)c2)cc1NC(=O)c1ccno1`, the IC50 – broadly, the concentration at which inhibition is half-maximal – was > 79 µM (inactive) with Cytotoxicity and 0.626 µM in assay [1].

On to `C/C(=N\Nc1cc(N2CCOCC2)ncn1)c1cccc([N+](=O)[O-])c1`, for which the IC50 in the assay on Cytotoxicity is 14.4 µM; in assay [1] it was 4.21 µM.

`CS(=O)(=O)Nc1cccc(-c2cc(NC=O)c3ncc(-c4ccc(F)cc4)n3c2)c1`: the half-maximal inhibitory concentration (IC50) with Cytotoxicity is 8.66 µM; in assay [1], 2.4 µM.

As for `CN(C)c1ccc(C(C(=O)NCc2ccccc2)N(Cc2ccco2)C(=O)c2snc(C(N)=O)c2N)cc1` (configuration not stated), the figures for the IC50 (in the assay with Cytotoxicity; in assay [1]) were 6.97 µM and 3.08 µM, respectively.

For `Cc1cc(N2CCOCC2)c2c(N)c(Br)cc(C)c2n1`, the IC50 in the assay with Cytotoxicity was 20 µM; in assay [1], 0.729 µM.

As to `COc1cccc(OC)c1C(=O)Nc1cc(C)nn1-c1nc2ccccc2[nH]1`, the concentration for half-maximal inhibition (IC50) was 10 µM in the assay with Cytotoxicity and 3.77 µM in assay [1].

For `CCCn1c(-c2nonc2N)nc2ccccc21`, the IC50 in the assay with Cytotoxicity is 31.6 µM; in assay [1] it was 4.28 µM.

Turning to `CC(C)Nc1ncnc2ccc(Br)cc12`, the IC50 with Cytotoxicity is 10.8 µM; in assay [1], 0.706 µM.

For the molecule `CC(C)C[C@H]1CNC(=S)N1C[C@H]1CCCN1C[C@H](Cc1ccccc1)N1C[C@H](Cc2ccc(O)cc2)N(CC2CCCCCC2)C1=S`, the half-maximal inhibitory concentration (IC50) is 28.6 µM with Cytotoxicity and 15.3 µM in assay [1].

As for `C=CCN1c2ccccc2Sc2cnccc21`, the figures for the IC50 (in the assay on Cytotoxicity; in assay [1]) were 40.6 µM and 2.59 µM, respectively.

`CCCCN(c1ccccc1)c1ncnc(N)c1[N+](=O)[O-]`: the IC50 in the assay with Cytotoxicity was > 79 µM (inactive); in assay [1], 1.08 µM.

As for `Cc1cc(C)c(O)c(CN(C)Cc2cc(Cl)cc(Cl)c2O)c1`, the figures for the IC50 (with Cytotoxicity; in assay [1]) were 9.57 µM and 4.39 µM, respectively.

In the case of `Nc1nc(N)nc(-c2cc(O)ccc2O)n1`, the 50% inhibitory concentration (IC50) is 21.2 µM with Cytotoxicity and 3.31 µM in assay [1].

In the case of `CCOC(=O)[C@@H]1[C@H]2COc3ccc(Br)cc3[C@H]2N2C(=O)N(c3ccc(C)cc3)C(=O)[C@]12C`, the IC50 (in the assay on Cytotoxicity; in assay [1]) was > 79 µM (inactive) in each case.

Consider `Cc1c(Cl)cccc1NC(=O)CSc1nc2ncc(Cl)cc2[nH]1`, for which the IC50 with Cytotoxicity is 15.5 µM; in assay [1] it was 10.6 µM.

Take `CC(C)C[C@@H](CN1CCC[C@@H]1CN1C(=S)NC[C@@H]1Cc1ccc(O)cc1)N1C[C@H](Cc2ccc(O)cc2)N(CC2CCCCC2)C1=S`: the results for the IC50 (with Cytotoxicity; in assay [1]) were 18.8 µM and 17 µM, respectively.

On to `CC(=O)NC(CC(C)C)C(=O)NC(Cc1ccccc1)C(=O)CCl` (stereo not drawn) (Ac-Leu-Phe-CH2Cl; configuration not given here), for which the IC50 in the assay on Cytotoxicity was 17.6 µM; in assay [1] it was 2.83 µM.

Consider `COc1ccc(-c2oc3ccc(-c4ccc5c(c4)OCO5)cc3c2C#CC2(O)CCCCC2)cc1`, for which the figures for the IC50 (with Cytotoxicity; in assay [1]) were 41.3 µM and 2.67 µM, respectively.

Turning to `CC(C)c1nc(NCCO)c(C#N)c2c1CCCC2`, the results for the IC50 (in the assay with Cytotoxicity; in assay [1]) were > 79 µM (inactive) and 5.77 µM, respectively.

In the case of `C=CCn1cnc2c(c1=O)c1nc3ccccc3nc1n2/N=C/c1cc(OC)c(OC)c(OC)c1`, the IC50 in the assay with Cytotoxicity is 5.94 µM; in assay [1], 4.18 µM.

As for `COc1ccccc1NS(=O)(=O)c1cccc(-n2c(O)c(C=Nc3ccccc3C(=O)O)c3ccccc3c2=O)c1`, the IC50 in the assay on Cytotoxicity was 37.1 µM; in assay [1], 5.54 µM.

With `C=C1C(=O)O[C@@H]2[C@H]3O[C@]3(C)CC/C=C(\C)CC[C@@H]12`, the 50% inhibitory concentration (IC50) in the assay with Cytotoxicity was 18.1 µM; in assay [1] it was 3.59 µM.

Take `NC(=O)c1nsc(C(=O)N(c2ccccc2)C(C(=O)NCc2ccc(F)cc2)c2ccc(O)cc2)c1N` (configuration not stated): the half-maximal inhibitory concentration (IC50) with Cytotoxicity was 8.81 µM; in assay [1], 4.75 µM.

Take `COc1ccc(C2=Nn3c(nnc3-c3ccccc3OC)SC2)cc1OC1CCOC1` (configuration not stated): the IC50 with Cytotoxicity was > 79 µM (inactive); in assay [1], 4.85 µM.

Take `CC(=O)c1c(C)n(C2CCCCC2)c2ccc(O)cc12`: the IC50 with Cytotoxicity is > 79 µM (inactive); in assay [1] it was 0.797 µM.

As for `CCCN(CC)c1ncnc2[nH]ncc12`, the IC50 in the assay on Cytotoxicity is 36.3 µM; in assay [1], 1.55 µM.

On to `COc1ccc(CNC(=O)C(c2ccc(O)cc2)N(Cc2ccco2)C(=O)c2snc(C(N)=O)c2N)cc1` (configuration not stated), for which the IC50 in the assay with Cytotoxicity was 5 µM; in assay [1], 4.58 µM.

As to `COc1cc2c(c(OC)c1OC)-c1ccc(SC)c(=O)cc1C(NC(=O)C(F)(F)F)CC2` (configuration not stated), the IC50 in the assay with Cytotoxicity is > 79 µM (inactive). In assay [1], the IC50 result is “inactive”.

In the case of `Fc1cccc(Cl)c1/C=N/Nc1c(Cl)cncc1Cl`, the half-inhibitory concentration (IC50) was 26.2 µM in the assay on Cytotoxicity and 5.83 µM in assay [1].

For `Cc1ccnc(Nc2nc(-c3sc(C)nc3C)cs2)c1`, the IC50 in the assay on Cytotoxicity is 16.6 µM; in assay [1], 5.11 µM.

As for `CCCCCCc1cc2cc(C(=O)OCC)c(=O)oc2cc1O`, the IC50 with Cytotoxicity is 20.2 µM; in assay [1] it was 7.22 µM.

Regarding `CC[C@@H](C(=O)[C@@H](C)[C@@H](O)[C@H](C)[C@@H]1O[C@@H]([C@@H](CC)C(=O)O)CC[C@@H]1C)[C@H]1O[C@]2(C=C[C@@H](O)[C@]3(CC[C@@](C)([C@H]4CC[C@](O)(CC)[C@H](C)O4)O3)O2)[C@H](C)C[C@@H]1C`, the IC50 in the assay with Cytotoxicity was 2.36 µM; in assay [1], 0.399 µM.

As for `Cc1c(C(=O)c2cccc3ccccc23)c2cccc3c2n1[C@H](CN1CCOCC1)CO3`, the values for the IC50 (in the assay on Cytotoxicity; in assay [1]) were 16.3 µM and 7.9 µM, respectively.

Consider `COc1cc(C(=O)Nc2nnc(-c3sccc3C)s2)cc(OC)c1OC`, for which, in the assay with Cytotoxicity, the IC50 is 4.33 µM. Moreover, the IC50 result in assay [1] was “inactive”.

As for `CCOC(=O)c1sc(NC(=O)c2cccc(S(=O)(=O)N3CCc4ccccc43)c2)c(C#N)c1C`, the half-maximal inhibitory concentration (IC50) in the assay on Cytotoxicity is 6.88 µM; in assay [1], 1.02 µM.

In the case of `O=C(Nc1cccnc1)c1sc2cccc(F)c2c1Cl`, the concentration for half-maximal inhibition (IC50) in the assay with Cytotoxicity is 43 µM; in assay [1], 12.1 µM.

On to `CCOc1ccc(C(C(=O)NCC2CCCO2)N(Cc2cccs2)C(=O)c2snc(C(N)=O)c2N)cc1` (configuration not stated), for which the IC50 in the assay with Cytotoxicity is > 79 µM (inactive); in assay [1] it was 3.47 µM.

For `CCCN(CCC)c1ncnc2nc[nH]c12`, the IC50 was 57.3 µM (inactive) with Cytotoxicity and 1.32 µM in assay [1].

Take `COc1ccc(-c2cncnc2-c2ccc(OC)cc2O)cc1`: the IC50 is > 79 µM (inactive) in the assay with Cytotoxicity and 4.39 µM in assay [1].

Consider `COc1ccc(-c2cc(-c3nc4ccccn4c3NCc3ccccc3)ccc2OC)cc1`, for which the half-inhibitory concentration (IC50) is 5.51 µM with Cytotoxicity and 4.41 µM in assay [1].

In the case of `COc1ccccc1/C=C/C(=O)c1c2c(c(C)[nH]c1=O)CCCC2`, the IC50 in the assay with Cytotoxicity was 41.6 µM; in assay [1] it was 2.94 µM.

`Nc1ncnc(N2CCc3ccccc32)c1[N+](=O)[O-]`: the concentration for half-maximal inhibition (IC50) was 29.7 µM in the assay on Cytotoxicity and 0.651 µM in assay [1].

On to `C=C1C(=O)OC2CC1C(O)CC(C)=CCCC(C)=CC(O)CC2C` (configuration not stated), for which the results for the IC50 (with Cytotoxicity; in assay [1]) were 1.09 µM and 0.537 µM, respectively.

For `C=CCn1c(Oc2ccccc2F)nc2c1c(=O)n(C)c(=O)n2C`, the IC50 was > 79 µM (inactive) in the assay on Cytotoxicity and 5.7 µM in assay [1].

In the case of `Cc1c([N+](=O)[O-])c2ccc(O)cc2n1-c1ccccc1`, the half-maximal inhibitory concentration (IC50) in the assay with Cytotoxicity was 26.2 µM; in assay [1], 0.851 µM.

Take `COc1ccc(OC)c(-c2nnc3n2N=C(c2ccc(OC)c(OCC4CC4)c2)CS3)c1`: the IC50 with Cytotoxicity was 47.7 µM; in assay [1], 3.87 µM.

As for `C=C1C(=O)C2=CC1CCC(=O)C1(C)CCC(OC(C)=O)C(C)(C)C1CC2O` (configuration not stated), the figures for the half-inhibitory concentration (IC50) (in the assay with Cytotoxicity; in assay [1]) were 13.3 µM and 1.35 µM, respectively.

For the molecule `O=C(CSc1nc(C2CC2)nc2ccccc12)Nc1cccc(O)c1`, the IC50 with Cytotoxicity is 42.8 µM; in assay [1], 2.58 µM.

In the case of `CCOC(=O)Nc1nc(-c2ccccc2)c(C(=O)c2ccccc2)s1`, the IC50 with Cytotoxicity was > 79 µM (inactive); in assay [1], 14.3 µM.

Take `COc1ccc(-n2nnnc2C(c2cccs2)N2CCC(n3c(=O)[nH]c4ccccc43)CC2)cc1` (configuration not stated): the results for the concentration for half-maximal inhibition (IC50) (in the assay on Cytotoxicity; in assay [1]) were 14.2 µM and 5.05 µM, respectively.

Take `Cc1nnc(Sc2nc3ccccc3o2)c2ccccc12`: the values for the concentration for half-maximal inhibition (IC50) (in the assay on Cytotoxicity; in assay [1]) were 5.61 µM and 6.57 µM, respectively.

With `Oc1ccc(C[C@H]2CNC(=S)N2CC2CCCN2C[C@H](Cc2ccc(O)cc2)N2C[C@H](Cc3ccc(O)cc3)N(CC3CCCCC3)C2=S)cc1` (some centres not stated), the IC50 in the assay with Cytotoxicity was 15.4 µM; in assay [1] it was 10.3 µM.

On to `NC(=O)c1sc2nccc(Nc3ccccc3)c2c1N`, for which the IC50 is 40 µM with Cytotoxicity and 0.374 µM in assay [1].

For `Cn1c(N2CCN(C(c3ccccc3)c3ccccc3)CC2)nc2c1c(=O)[nH]c(=O)n2C`, the IC50 in the assay with Cytotoxicity is 7.56 µM; in assay [1] it was 3.69 µM.

As to `CN(c1ncnc(N)c1[N+](=O)[O-])C1CCCCC1`, the figures for the IC50 (in the assay with Cytotoxicity; in assay [1]) were > 79 µM (inactive) and 1.09 µM, respectively.

Regarding `CN(C)CCCN(C(=O)CCS(=O)(=O)c1ccccc1)c1nc2cc3c(cc2s1)OCO3`, the results for the IC50 (in the assay with Cytotoxicity; in assay [1]) were 7.47 µM and 1.7 µM, respectively.

For the molecule `C[C@@H]1CN([C@H](C)CO)C(=O)c2cc(NC(=O)Nc3ccc(C(F)(F)F)cc3)ccc2O[C@H]1CN(C)S(=O)(=O)c1cccs1`, the IC50 with Cytotoxicity is 54.9 µM (inactive); in assay [1] it was 5.41 µM.

On to `CNc1ccc2ncc(-c3ccc(OC)c(OC)c3)n2n1`, for which the IC50 in the assay on Cytotoxicity was 15.8 µM; in assay [1], 0.535 µM.

Consider `Cc1cnc(NC(=O)CCCc2nc3ccccc3s2)s1`, for which the concentration for half-maximal inhibition (IC50) was 44.5 µM in the assay on Cytotoxicity and 4.23 µM in assay [1].

As for `Cc1ccc(-c2c(C#N)c(N)n3c(nc4ccccc43)c2C#N)cc1`, the IC50 in the assay on Cytotoxicity was 5.34 µM; in assay [1], 2.89 µM.

As for `COc1ccc(CNc2ncnc3ccccc23)cc1`, the IC50 is 59.5 µM (inactive) in the assay on Cytotoxicity and 15.3 µM in assay [1].

`CC(=C/c1ccccc1)/C=N/n1c(-c2ccncc2)n[nH]c1=S`: the results for the IC50 (in the assay on Cytotoxicity; in assay [1]) were 65.2 µM (inactive) and 0.43 µM, respectively.

Consider `COc1ccc(-n2nnnc2S(=O)(=O)Cc2ccc(C(=O)O)cc2)cc1`, for which the concentration for half-maximal inhibition (IC50) in the assay on Cytotoxicity is 3.16 µM; in assay [1] it was 1.05 µM.

As to `ON=C1c2ccccc2-c2ccccc21`, the figures for the IC50 (in the assay on Cytotoxicity; in assay [1]) were 63 µM (inactive) and 19.5 µM, respectively.

Take `CCOC(=O)c1ccc(-n2[nH]c(-c3ccccc3)cc2=O)cc1`: the half-maximal inhibitory concentration (IC50) was 3.77 µM in the assay with Cytotoxicity and 5.35 µM in assay [1].

Turning to `Cc1ccnc(NC(=O)CSc2cc(=O)n(C)c3ccccc23)c1`, the IC50 in the assay with Cytotoxicity is 39.4 µM; in assay [1], 7.95 µM.
